The NIST ThermoML archive (doi:10.1021/je1009619)

Test: xn = mol fraction of the nth substance listed
Details: Liquid, Vibrating tube method

CC1=CC[C@H]2C[C@@H]1C2(C)C [(S)-2-pinene] + C=C(C)[C@H]1CC=C(C)CC1
mass density [kg/m3]
Details	x2 = 0	x2 = 0.0976	x2 = 0.1991	x2 = 0.2983	x2 = 0.3955	x2 = 0.5036	x2 = 0.5967	x2 = 0.7024	x2 = 0.8084	x2 = 0.906
283.15 K, 20000 kPa	880	878.3	876.4	874.6	872.9	870.9	869.2	867.4	865.3	863.5
283.15 K, 25000 kPa	883.2	881.4	879.3	877.6	875.8	873.8	872.1	870.3	868.3	866.6
283.15 K, 30000 kPa	886.3	884.3	882.4	880.5	878.7	876.7	875.1	873.1	871.3	869.2
283.15 K, 35000 kPa	889.4	887.5	885.4	883.4	881.7	879.7	878	876.1	873.9	871.9
283.15 K, 40000 kPa	892.5	890.4	888.5	886.5	884.7	882.7	880.9	878.9	876.5	874.4
298.15 K, 20000 kPa	868.8	866.9	865.4	863.5	861.7	860	858.4	856.9	855.1	853
298.15 K, 25000 kPa	872.1	870.3	868.6	866.8	865	863.2	861.6	859.8	858	856.1
298.15 K, 30000 kPa	875.3	873.5	871.7	869.8	868.1	866.3	864.7	862.8	861	859.1
298.15 K, 35000 kPa	878.6	876.7	875	873.1	871.3	869.5	867.9	865.9	864.1	862.2
298.15 K, 40000 kPa	881.9	880	878.1	876.3	874.5	872.6	871	869	867.1	865.2
313.15 K, 20000 kPa	858	856.2	854.4	852.6	851	849.2	847.6	845.9	844.1	842.4
313.15 K, 25000 kPa	861.3	859.5	857.7	855.9	854.3	852.5	851	849.2	847.4	845.7
313.15 K, 30000 kPa	864.7	862.8	861.1	859.3	857.6	855.7	854.2	852.4	850.5	848.8
313.15 K, 35000 kPa	867.9	866.2	864.5	862.6	860.9	858.9	857.4	855.6	853.8	852
313.15 K, 40000 kPa	871.3	869.5	867.8	866	864.2	862.2	860.6	858.8	856.9	855.1
328.15 K, 20000 kPa	846.7	845.1	843.4	841.8	840.2	838.4	837	835.3	833.5	832
328.15 K, 25000 kPa	850.4	848.7	847	845.2	843.6	841.9	840.4	838.6	836.9	835.4
328.15 K, 30000 kPa	854	852.3	850.6	848.8	847.2	845.4	843.9	842.1	840.4	838.7
328.15 K, 35000 kPa	857.5	855.8	854	852.3	850.6	848.8	847.3	845.5	843.7	841.9
328.15 K, 40000 kPa	861.1	859.4	857.5	855.8	854.1	852.1	850.6	848.8	847.1	845.3
343.15 K, 20000 kPa	835.9	834.4	832.8	831.2	829.6	827.9	826.5	824.8	823.1	821.6
343.15 K, 25000 kPa	839.7	838.1	836.5	834.9	833.4	831.7	830.2	828.4	826.8	825.2
343.15 K, 30000 kPa	843.8	842.1	840.4	838.8	837.1	835.4	834	832.1	830.4	828.8
343.15 K, 35000 kPa	847.7	846	844.2	842.5	840.9	839.1	837.6	835.9	834.1	832.2
343.15 K, 40000 kPa	851.4	849.6	847.9	846.2	844.5	842.7	841.2	839.5	837.3	835.5
358.15 K, 20000 kPa	825	823.5	822.1	820.7	819.3	817.9	816.5	815.1	813.3	811.5
358.15 K, 25000 kPa	829.2	827.7	826	824.6	823.1	821.6	820.2	818.7	816.9	815.3
358.15 K, 30000 kPa	833.3	831.6	830	828.4	826.9	825.3	823.9	822.2	820.6	818.7
358.15 K, 35000 kPa	837.4	835.7	834	832.2	830.7	829	827.5	825.8	824	822.4
358.15 K, 40000 kPa	841.5	839.7	838	836.2	834.6	832.8	831.2	829.4	827.6	825.9
